Source: ChEMBL document CHEMBL6153098, “Immunomodulatory Potential of a Bibenzyl-dihydrophenanthrene Derivative Isolated from Calanthe cardioglossa” (J Nat Prod, 2025)
Activity calls are given as the source filed them. No cut-off for these calls is given here.

Assays:
THP-1 [1] = assay: Cytotoxicity against human THP-1 cells assessed as cell viability at 10 uM incubated for 4 hrs by PrestoBlue cell viability assay; type: toxicity, cell-based; details: thp-1, 4 h
THP-1 [2] = assay: Immunomodulatory activity in human THP-1 cells assessed as reduction in LPS-induced TNF-alpha production at 10 uM incubated for 4 hrs by ELISA assay; type: functional, cell-based
PBMC = assay: Immunomodulatory activity in multiple sclerosis pateint-derived human PBMC cells assessed as reduction in LPS-induced TNF-alpha production in CD14+ monocytes at 10 uM incubated for 4 hrs by flow cytometry assay; type: functional, cell-based

`COc1cc(O)cc(CCc2ccc(O)c(OC)c2)c1` [GIGANTOL] was tested, and the Activity (THP-1 [1]) was “Non-toxic” and the Activity (THP-1 [2]) was “Active”.
For `COc1cccc(CCc2cc(OC)cc(O)c2-c2cc3c(cc2O)CCc2cc(OC)cc(O)c2-3)c1`, the Activity (THP-1 [1]) was “Non-toxic”, the Activity (THP-1 [2]) was “Active; Compound Exhibited The Most Pronounced Activity” and the Activity (PBMC) was “Active”.
`COc1cc(O)c2c(c1)CCc1cc(O)ccc1-2` was tested, and the Activity (THP-1 [2]) was “Active”.
`COc1cc([C@H]2Oc3cc4c(cc3[C@@H]2CO)-c2c(cc(O)cc2OC)CC4)ccc1O` was tested, and the Activity (THP-1 [1]) was “Non-toxic”.
In the case of `O=c1c2ccccc2ncn1-c1ccccc1O`, the Activity (THP-1 [1]) is reported as “Non-toxic”.
`COc1cc(O)cc2c1-c1cc(-c3c(O)cc(OC)c4c3CCc3cc(O)ccc3-4)c(O)cc1CC2` was tested, and the Activity (THP-1 [1]) was “Non-toxic”.
In the case of `COc1cc(O)c2c(c1)CCc1cc(O)c(-c3c(O)cc(OC)c4c3CCc3cc(O)ccc3-4)cc1-2`, the Activity (THP-1 [1]) is reported as “Non-toxic” and the Activity (THP-1 [2]) is reported as “Active”.
`COc1cc(O)cc2c1-c1ccc(O)cc1CC2` was tested, and the Activity (THP-1 [1]) was “Non-toxic” and the Activity (THP-1 [2]) was “inactive”.
`COc1cc(O)cc(CCc2cccc(O)c2)c1` [BATATASIN III] was tested, and the Activity (THP-1 [1]) was “Non-toxic” and the Activity (THP-1 [2]) was “Active”.
`COc1cc(C2Oc3cc(OC)c4c(c3C2COC(C)=O)CCc2cc(O)ccc2-4)ccc1O` (stereo unspecified) was tested, and the Activity (THP-1 [1]) was “Non-toxic”.
